Data published in article PMC11025159 (Journal of Translational Medicine, 2024).

Test: Body weight, biochemical and haematological parameters in DHT-induced AGA mice (0.5% testosterone then topical treatment)
Type: in vivo, C57BL/6J mice
Conditions: for LYMPH: unit assumed
Method: The experiments were performed on C57BL/6 J and Athymic nude mice (NU/J Foxn1^nu) of 6–7 weeks of age obtained from Animal House Facility, CSIR-Indian Institute of Integrative Medicine (IIIM), Jammu, India. […] The animals were provided with ad libitum feed (standard pellet diet) and autoclaved RO water throughout the study. The body weight of mice was measured after seven days before treatment.
C57BL/6 J mice (male) were obtained from CSIR-IIIM Animal House at 7 weeks of age. We used a DHT-induced AGA mice model for this study. […] At the end of the experiment, skin samples were collected and preserved in 10% neutral buffered formalin for tissue sectioning and staining using haematoxylin and eosin (H&E). The histopathological examinations were performed under the 10× and 40× objectives of light microscope (Magnus, Mx21i).
Every two weeks during the experimental period, mice were anesthetized, and the blood samples were collected into tubes containing heparin sodium to detect the total and differential white blood cells, haemoglobin, red blood cell, platelet count, mean corpuscular haemoglobin, mean corpuscular volume, red blood cell volume, mean platelet volume, and analyzed using an automated haematology analyzer (Model: XT1800i; Make: Sysmex).
Every two weeks during the experimental period, mice and rats were anesthetized, and blood samples were collected into non-heparinized tubes and then centrifuged at 1000 rpm at 4 °C for 10 min to obtain the serum. The biochemical parameters, including total protein, aspartate aminotransferase, alanine aminotransferase, total protein, albumin, total bilirubin, direct bilirubin, glucose, total cholesterol, triglyceride, low-density lipoprotein, high-density lipoprotein, creatinine, and uric acid, were measured using an automatic biochemical analyzer (Model: EM360; Make: Erba Mannheim).

For CCS(=O)(=O)N1CC(CC#N)(n2cc(-c3ncnc4[nH]ccc34)cn2)C1 [Baricitinib, baricitinib, reference compound], the ALP (Day 21, 0.02 mg/Kg) was 108 U/L, the ALT/SGPT (Day 21, 0.02 mg/Kg) was 74 U/L and the AST/SGOT (Day 21, 0.02 mg/Kg) was 143 U/L. It also gave a Cholesterol (Day 21, 0.02 mg/Kg) of 171 mg/dL, a Creatine (Day 21, 0.02 mg/Kg) of 0.72 mg/dL and an HCT (Day 21, 0.02 mg/Kg) of 45%. For the same compound, the HDL (Day 21, 0.02 mg/Kg) was 105 mg/dL, the LDL (Day 21, 0.02 mg/Kg) was 101 mg/dL and the MCHC (Day 21, 0.02 mg/Kg) was 28 g/dL. For the same compound, the MCV (Day 21, 0.02 mg/Kg) was 52 fL, the NEUT (Day 21, 0.02 mg/Kg) was 30.5% and the PLT (Day 21, 0.02 mg/Kg) was 946 103/μl. The RBC (Day 21, 0.02 mg/Kg) was 8.2 1012/l, the Total protein (Day 21, 0.02 mg/Kg) was 5.0 g/dL and the Triglyceride (Day 21, 0.02 mg/Kg) was 98 mg/dL. For the same compound, the Urea (Day 21, 0.02 mg/Kg) was 69 mg/dL, the WBC (Day 21, 0.02 mg/Kg) was 4.3 103/μl and the LYMPH (Day 21, 0.02 mg/Kg) was 67.4%. The ALP (Day 21, 0.04 mg/Kg) was 99 U/L, the ALT/SGPT (Day 21, 0.04 mg/Kg) was 64 U/L and the AST/SGOT (Day 21, 0.04 mg/Kg) was 98 U/L. It also gave a Cholesterol (Day 21, 0.04 mg/Kg) of 171 mg/dL, a Creatine (Day 21, 0.04 mg/Kg) of 0.69 mg/dL and an HCT (Day 21, 0.04 mg/Kg) of 43%. For the same compound, the HDL (Day 21, 0.04 mg/Kg) was 122 mg/dL, the LDL (Day 21, 0.04 mg/Kg) was 106 mg/dL and the MCHC (Day 21, 0.04 mg/Kg) was 29 g/dL. The MCV (Day 21, 0.04 mg/Kg) was 52 fL, the NEUT (Day 21, 0.04 mg/Kg) was 30.5% and the PLT (Day 21, 0.04 mg/Kg) was 1082 103/μl. The RBC (Day 21, 0.04 mg/Kg) was 8.6 1012/l, the Total protein (Day 21, 0.04 mg/Kg) was 4.9 g/dL and the Triglyceride (Day 21, 0.04 mg/Kg) was 139 mg/dL. For the same compound, the Urea (Day 21, 0.04 mg/Kg) was 54 mg/dL, the WBC (Day 21, 0.04 mg/Kg) was 3.6 103/μl and the LYMPH (Day 21, 0.04 mg/Kg) was 67.4%. It also gave an ALP (Day 21, 0.1mg/Kg) of 144 U/L, an ALT/SGPT (Day 21, 0.1mg/Kg) of 92 U/L and an AST/SGOT (Day 21, 0.1mg/Kg) of 104 U/L. For the same compound, the Cholesterol (Day 21, 0.1mg/Kg) was 173 mg/dL, the Creatine (Day 21, 0.1mg/Kg) was 0.48 mg/dL and the HCT (Day 21, 0.1mg/Kg) was 48%. For the same compound, the HDL (Day 21, 0.1mg/Kg) was 108 mg/dL, the LDL (Day 21, 0.1mg/Kg) was 100 mg/dL and the MCHC (Day 21, 0.1mg/Kg) was 29 g/dL. The MCV (Day 21, 0.1mg/Kg) was 50 fL, the NEUT (Day 21, 0.1mg/Kg) was 26.8% and the PLT (Day 21, 0.1mg/Kg) was 1149 103/μl. For the same compound, the RBC (Day 21, 0.1mg/Kg) was 9.6 1012/l, the Total protein (Day 21, 0.1mg/Kg) was 5.0 g/dL and the Triglyceride (Day 21, 0.1mg/Kg) was 119 mg/dL. The Urea (Day 21, 0.1mg/Kg) was 51 mg/dL, the WBC (Day 21, 0.1mg/Kg) was 6.4 103/μl and the LYMPH (Day 21, 0.1mg/Kg) was 71.3%. The ALP (Day 28, 0.02 mg/Kg) was 159 U/L, the ALT/SGPT (Day 28, 0.02 mg/Kg) was 71 U/L and the AST/SGOT (Day 28, 0.02 mg/Kg) was 129 U/L. For the same compound, the Cholesterol (Day 28, 0.02 mg/Kg) was 213 mg/dL, the Creatine (Day 28, 0.02 mg/Kg) was 0.16 mg/dL and the HCT (Day 28, 0.02 mg/Kg) was 48.0%. For the same compound, the HDL (Day 28, 0.02 mg/Kg) was 173 mg/dL, the HGB (Day 28, 0.02 mg/Kg) was 15 g/dL and the LDL (Day 28, 0.02 mg/Kg) was 98 mg/dL. The MCHC (Day 28, 0.02 mg/Kg) was 30.0 g/dL, the MCV (Day 28, 0.02 mg/Kg) was 62 fL and the PLT (Day 28, 0.02 mg/Kg) was 1724 103/μl. For the same compound, the RBC (Day 28, 0.02 mg/Kg) was 7.8 106/μl, the Total protein (Day 28, 0.02 mg/Kg) was 5.8 g/dL and the Triglyceride (Day 28, 0.02 mg/Kg) was 90 mg/dL. The Urea (Day 28, 0.02 mg/Kg) was 60 mg/dL, the WBC (Day 28, 0.02 mg/Kg) was 6.3 103/μl and the ALP (Day 28, 0.04 mg/Kg) was 174 U/L. The ALT/SGPT (Day 28, 0.04 mg/Kg) was 88 U/L, the AST/SGOT (Day 28, 0.04 mg/Kg) was 123 U/L and the Cholesterol (Day 28, 0.04 mg/Kg) was 182 mg/dL. It also gave a Creatine (Day 28, 0.04 mg/Kg) of 0.11 mg/dL, an HCT (Day 28, 0.04 mg/Kg) of 48.0% and an HDL (Day 28, 0.04 mg/Kg) of 143 mg/dL. The HGB (Day 28, 0.04 mg/Kg) was 14 g/dL, the LDL (Day 28, 0.04 mg/Kg) was 85 mg/dL and the MCHC (Day 28, 0.04 mg/Kg) was 29.0 g/dL. For the same compound, the MCV (Day 28, 0.04 mg/Kg) was 60 fL, the PLT (Day 28, 0.04 mg/Kg) was 1427 103/μl and the RBC (Day 28, 0.04 mg/Kg) was 8.0 106/μl. The Total protein (Day 28, 0.04 mg/Kg) was 6.3 g/dL, the Triglyceride (Day 28, 0.04 mg/Kg) was 123 mg/dL and the Urea (Day 28, 0.04 mg/Kg) was 66 mg/dL. The WBC (Day 28, 0.04 mg/Kg) was 3.1 103/μl, the ALP (Day 28, 0.1mg/Kg) was 184 U/L and the ALT/SGPT (Day 28, 0.1mg/Kg) was 74 U/L. For the same compound, the AST/SGOT (Day 28, 0.1mg/Kg) was 86 U/L, the Cholesterol (Day 28, 0.1mg/Kg) was 164 mg/dL and the Creatine (Day 28, 0.1mg/Kg) was 0.13 mg/dL. It also gave an HCT (Day 28, 0.1mg/Kg) of 43.0%, an HDL (Day 28, 0.1mg/Kg) of 134 mg/dL and an HGB (Day 28, 0.1mg/Kg) of 14 g/dL. It also gave an LDL (Day 28, 0.1mg/Kg) of 78 mg/dL, an MCHC (Day 28, 0.1mg/Kg) of 33.0 g/dL and an MCV (Day 28, 0.1mg/Kg) of 67 fL. The PLT (Day 28, 0.1mg/Kg) was 1394 103/μl, the RBC (Day 28, 0.1mg/Kg) was 6.4 106/μl and the Total protein (Day 28, 0.1mg/Kg) was 6.2 g/dL. For the same compound, the Triglyceride (Day 28, 0.1mg/Kg) was 72 mg/dL, the Urea (Day 28, 0.1mg/Kg) was 53 mg/dL and the WBC (Day 28, 0.1mg/Kg) was 3.9 103/μl.
